Measurements taken from patent publication US12673946B2, “Pyrimidin-4(3H)-one derivatives as TRPV4 antagonists” (RaQualia Pharma Inc., priority 2020, dated 2026).

Target: T1, human TRPV4 (Homo sapiens, UniProt Q9HBA0)
T1 construct: host or cells: tetracycline-inducible Flp-In T-REx 293 cells
Test: Hypotonicity-induced Ca2+ influx (Fluo-4, FDSS)
Type: cell-based
Summary of the method: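 Flp-In T-REx 293 cells with tetracycline-induced human TRPV4, loaded with Fluo-4 for 60 min at 25 °C. Compound added 5 min before hypotonic mannitol/CaCl2 solution. Ca2+ signal recorded for 4.5 min on FDSS.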

[1] = Flp-In T-REx 293 cells expressing human TRPV4, examples listed under heading 'Human IC50<50 nM'
[2] = Flp-In T-REx 293 cells stably expressing human TRPV4, compounds listed by potency bin (<10 nM Tables 96-1/96-2, <3 nM Table 97)

T1 sequence (Q9HBA0 whole entry): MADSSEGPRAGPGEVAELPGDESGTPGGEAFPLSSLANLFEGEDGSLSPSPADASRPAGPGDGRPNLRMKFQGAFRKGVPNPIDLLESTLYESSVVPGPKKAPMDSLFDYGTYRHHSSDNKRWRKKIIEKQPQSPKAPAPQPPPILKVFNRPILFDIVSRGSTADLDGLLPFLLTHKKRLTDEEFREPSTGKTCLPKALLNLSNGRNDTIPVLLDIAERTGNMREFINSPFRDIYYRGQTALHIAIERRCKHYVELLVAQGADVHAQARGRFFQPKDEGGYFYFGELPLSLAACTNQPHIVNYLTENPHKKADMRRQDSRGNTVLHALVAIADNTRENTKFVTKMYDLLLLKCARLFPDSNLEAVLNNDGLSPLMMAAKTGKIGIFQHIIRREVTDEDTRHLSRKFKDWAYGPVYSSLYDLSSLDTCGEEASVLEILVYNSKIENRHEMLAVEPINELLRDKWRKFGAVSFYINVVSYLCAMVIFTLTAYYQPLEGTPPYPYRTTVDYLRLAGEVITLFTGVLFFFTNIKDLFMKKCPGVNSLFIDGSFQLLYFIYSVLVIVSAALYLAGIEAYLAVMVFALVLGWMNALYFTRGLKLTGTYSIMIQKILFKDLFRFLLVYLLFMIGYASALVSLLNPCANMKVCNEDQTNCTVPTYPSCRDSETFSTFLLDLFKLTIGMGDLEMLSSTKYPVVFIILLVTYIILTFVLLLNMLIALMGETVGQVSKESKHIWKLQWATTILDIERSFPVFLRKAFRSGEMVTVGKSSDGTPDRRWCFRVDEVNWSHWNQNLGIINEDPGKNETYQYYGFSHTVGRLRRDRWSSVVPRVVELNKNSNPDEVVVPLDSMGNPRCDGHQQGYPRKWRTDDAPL

## O=C([C@H](O)c1cccc(-c2csc3ccccc23)c1)N1CCCc2nc(C3(c4ccccc4)CC3)[nH]c(=O)c2C1 [49-24]
[1]
  IC50: < 0.05 µM
[2]
  IC50: < 0.01 µM

## O=C([C@H](O)c1cccc(-c2cc3ccccc3o2)c1)N1CCCc2nc(C3(c4ccccc4)CC3)[nH]c(=O)c2C1 [49-25]
[1]
  IC50: < 0.05 µM
[2]
  IC50: < 0.003 µM

## O=C([C@H](O)c1cccc(-c2cccc(OCc3ccccc3)c2)c1)N1CCCc2nc(C3(c4ccccc4)CC3)[nH]c(=O)c2C1 [49-26]
[1]
  IC50: < 0.05 µM
[2]
  IC50: < 0.01 µM

## O=C([C@H](O)c1cccc(-c2cc(F)cc(Cl)c2)c1)N1CCCc2nc(C3(c4ccccc4)CC3)[nH]c(=O)c2C1 [49-27]
[1]
  IC50: < 0.05 µM
[2]
  IC50: < 0.003 µM

## O=C([C@H](O)c1cccc(-c2cc3ccccc3s2)c1)N1CCCc2nc(C3(c4ccccc4)CC3)[nH]c(=O)c2C1 [49-28]
[1]
  IC50: < 0.05 µM
[2]
  IC50: < 0.003 µM

## Cc1cc(Cl)cc(-c2cccc([C@@H](O)C(=O)N3CCCc4nc(C5(c6ccccc6)CC5)[nH]c(=O)c4C3)c2)c1 [49-29]
[1]
  IC50: < 0.05 µM
[2]
  IC50: < 0.01 µM

## O=C([C@H](O)c1cccc(-c2ccc(F)c(Cl)c2)c1)N1CCCc2nc(C3(c4ccccc4)CC3)[nH]c(=O)c2C1 [49-30]
[1]
  IC50: < 0.05 µM
[2]
  IC50: < 0.003 µM

## Cc1ccc(-c2cccc([C@@H](O)C(=O)N3CCCc4nc(C5(c6ccccc6)CC5)[nH]c(=O)c4C3)c2)cc1Cl [49-31]
[1]
  IC50: < 0.05 µM
[2]
  IC50: < 0.003 µM

## O=C([C@H](O)c1cccc(-c2cc(C(F)(F)F)cc(C(F)(F)F)c2)c1)N1CCCc2nc(C3(c4ccccc4)CC3)[nH]c(=O)c2C1 [49-32]
[1]
  IC50: < 0.05 µM
[2]
  IC50: < 0.01 µM

## O=C([C@H](O)c1cccc(-c2ccc(OC(F)(F)F)cc2)c1)N1CCCc2nc(C3(c4ccccc4)CC3)[nH]c(=O)c2C1 [49-33]
[1]
  IC50: < 0.05 µM
[2]
  IC50: < 0.003 µM

## O=C([C@H](O)c1cccc(-c2cc(Cl)cc(OC(F)(F)F)c2)c1)N1CCCc2nc(C3(c4ccccc4)CC3)[nH]c(=O)c2C1 [49-34]
[1]
  IC50: < 0.05 µM
[2]
  IC50: < 0.01 µM

## O=C([C@H](O)c1cccc(-c2cc(Cl)cc(Cl)c2)c1)N1CCCc2nc(C3(c4ccccc4)CC3)[nH]c(=O)c2C1 [49-35]
[1]
  IC50: < 0.05 µM
[2]
  IC50: < 0.01 µM

## O=C([C@H](O)c1cccc(-c2cc(Cl)cc(C(F)(F)F)c2)c1)N1CCCc2nc(C3(c4ccccc4)CC3)[nH]c(=O)c2C1 [49-36]
[1]
  IC50: < 0.05 µM
[2]
  IC50: < 0.003 µM

## O=C([C@H](O)c1cccc(-c2ccc(Cl)c(C(F)(F)F)c2)c1)N1CCCc2nc(C3(c4ccccc4)CC3)[nH]c(=O)c2C1 [49-37]
[1]
  IC50: < 0.05 µM
[2]
  IC50: < 0.01 µM

## O=C([C@H](O)c1cccc(-c2ccc(OCc3ccccc3)nc2)c1)N1CCCc2nc(C3(c4ccccc4)CC3)[nH]c(=O)c2C1 [49-38]
[1]
  IC50: < 0.05 µM
[2]
  IC50: < 0.003 µM

## O=C([C@H](O)c1cccc(-c2ccc3c(c2)OC(F)(F)O3)c1)N1CCCc2nc(C3(c4ccccc4)CC3)[nH]c(=O)c2C1 [49-39]
[1]
  IC50: < 0.05 µM
[2]
  IC50: < 0.003 µM

## O=C([C@H](O)c1cccc(-c2ccc(Cl)c(Cl)c2)c1)N1CCCc2nc(C3(c4ccccc4)CC3)[nH]c(=O)c2C1 [49-40]
[1]
  IC50: < 0.05 µM
[2]
  IC50: < 0.003 µM

## O=C([C@H](O)c1cccc(-c2ccc(Cl)c(OC(F)(F)F)c2)c1)N1CCCc2nc(C3(c4ccccc4)CC3)[nH]c(=O)c2C1 [49-41]
[1]
  IC50: < 0.05 µM
[2]
  IC50: < 0.01 µM

## O=C([C@H](O)c1cccc(-c2cccc(Cl)c2Cl)c1)N1CCCc2nc(C3(c4ccccc4)CC3)[nH]c(=O)c2C1 [49-42]
[1]
  IC50: < 0.05 µM
[2]
  IC50: < 0.01 µM

## O=C([C@H](O)c1cccc(-c2cc(Cl)ccc2Cl)c1)N1CCCc2nc(C3(c4ccccc4)CC3)[nH]c(=O)c2C1 [49-43]
[1]
  IC50: < 0.05 µM
[2]
  IC50: < 0.01 µM

## N#Cc1cc(Cl)cc(-c2cccc([C@@H](O)C(=O)N3CCCc4nc(C5(c6ccccc6)CC5)[nH]c(=O)c4C3)c2)c1 [49-44]
[1]
  IC50: < 0.05 µM
[2]
  IC50: < 0.003 µM

## CC(C)Oc1cccc(-c2cccc([C@@H](O)C(=O)N3CCCc4nc(C5(c6ccccc6)CC5)[nH]c(=O)c4C3)c2)c1 [49-45]
[1]
  IC50: < 0.05 µM
[2]
  IC50: < 0.003 µM
